Data published in PubChem BioAssay AID248 (DTP/NCI, 2004).
“And” between values parts separate entries of the source, which are not always exact repeats. Equal values may be shown once. Inconclusive results and toxic doses are left out. Rule as the data show it: active = T/C of 150% or more; inactive = T/C below 125%.

Test system: L1210 leukemia ip in BDF1 mice, survival T/C
Assay: NCI In Vivo Anticancer Drug Screen. Data for tumor model L1210 Leukemia (intraperitoneal) in B6D2F1 (BDF1) mice
Conditions: endpoint: mean survival time, higher = longer survival
Method in brief: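 Ratio derived from survival: compound-dosed mice over vehicle-dosed mice, all bearing a transplantable tumor.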

[1] = dose: 25.0 mg/kg/injection, schedule: Q01DX001 (ip), vehicle: saline
[2] = dose: 25.0 mg/kg/injection, schedule: Q01DX009 (ip), vehicle: saline
[3] = dose: 50.0 mg/kg/injection, schedule: Q01DX001 (ip), vehicle: saline
[4] = dose: 50.0 mg/kg/injection, schedule: Q01DX009 (ip), vehicle: saline
[5] = dose: 100.0 mg/kg/injection, schedule: Q01DX009 (ip), vehicle: saline
[6] = dose: 100.0 mg/kg/injection, schedule: Q04DX003 (ip), vehicle: saline
[7] = dose: 200.0 mg/kg/injection, schedule: Q01DX009 (ip), vehicle: saline with Tween-80
[8] = dose: 100.0 mg/kg/injection, schedule: Q01DX001 (ip), vehicle: saline
[9] = dose: 200.0 mg/kg/injection, schedule: Q01DX001 (ip), vehicle: saline

Measured: T/C

CN(C)CCCN1c2ccccc2Sc2ccc(Cl)cc21
inactive: dose: 0.77 mg/kg/injection, schedule: Q03HX024 (ip), vehicle: saline 104 % of control | dose: 0.78 mg/kg/injection, schedule: Q04DX024 (oral), vehicle: saline 98 % of control | dose: 1.55 mg/kg/injection, schedule: Q03HX024 (ip), vehicle: saline 109 % of control | dose: 1.56 mg/kg/injection, schedule: Q04DX003 (ip), vehicle: saline 101 % of control | dose: 1.56 mg/kg/injection, schedule: Q04DX024 (oral), vehicle: saline 90 % of control | dose: 2.0 mg/kg/injection, schedule: Q01DX009 (ip), vehicle: saline 95 % of control and 113 % of control | dose: 2.5 mg/kg/injection, schedule: Q01DX015 (ip), vehicle: saline 103 % of control | dose: 3.1 mg/kg/injection, schedule: Q03HX024 (ip), vehicle: saline 102 % of control | dose: 3.12 mg/kg/injection, schedule: Q01DX009 (ip), vehicle: saline 111 % of control | dose: 3.12 mg/kg/injection, schedule: Q04DX003 (ip), vehicle: saline 101 % of control | dose: 3.12 mg/kg/injection, schedule: Q04DX024 (oral), vehicle: saline 104 % of control | dose: 4.0 mg/kg/injection, schedule: Q01DX009 (ip), vehicle: saline 93 % of control and 106 % of control | dose: 5.0 mg/kg/injection, schedule: Q01DX015 (ip), vehicle: saline 105 % of control | dose: 6.2 mg/kg/injection, schedule: Q03HX024 (ip), vehicle: saline 109 % of control | dose: 6.25 mg/kg/injection, schedule: Q04DX003 (ip), vehicle: saline 102 % of control and 103 % of control | dose: 8.0 mg/kg/injection, schedule: Q01DX009 (ip), vehicle: saline 106 % of control and 120 % of control | dose: 8.0 mg/kg/injection, schedule: Q01DX015 (ip), vehicle: saline 104 % of control | dose: 10.0 mg/kg/injection, schedule: Q01DX009 (ip), vehicle: saline 111 % of control | dose: 10.0 mg/kg/injection, schedule: Q01DX015 (ip), vehicle: saline 105 % of control | dose: 12.0 mg/kg/injection, schedule: Q01DX015 (ip), vehicle: saline 115 % of control | dose: 12.4 mg/kg/injection, schedule: Q03HX024 (ip), vehicle: saline 116 % of control | dose: 12.5 mg/kg/injection, schedule: Q01DX001 (ip), vehicle: saline 94 % of control | dose: 12.5 mg/kg/injection, schedule: Q01DX009 (ip), vehicle: saline 110 % of control and 102 % of control | dose: 12.5 mg/kg/injection, schedule: Q04DX003 (ip), vehicle: saline 109 % of control [middle of 4 runs] | dose: 16.0 mg/kg/injection, schedule: Q01DX009 (ip), vehicle: saline 87 % of control | dose: 18.0 mg/kg/injection, schedule: Q01DX015 (ip), vehicle: saline 121 % of control | dose: 18.75 mg/kg/injection, schedule: Q01DX001 (ip), vehicle: saline 113 % of control and 123 % of control | dose: 18.75 mg/kg/injection, schedule: Q01DX009 (ip), vehicle: saline 101 % of control | dose: 20.0 mg/kg/injection, schedule: Q01DX009 (ip), vehicle: saline 108 % of control | dose: 20.0 mg/kg/injection, schedule: Q01DX Z (ip), vehicle: methylcellulose (MC) 108 % of control | dose: 20.0 mg/kg/injection, schedule: Q04DX003 (ip), vehicle: saline 115 % of control | [1] 101 % of control | [2] 105 % of control | dose: 25.0 mg/kg/injection, schedule: Q04DX003 (ip), vehicle: saline 109 % of control [middle of 4 runs] | dose: 26.0 mg/kg/injection, schedule: Q04DX003 (ip), vehicle: saline 121 % of control | dose: 27.0 mg/kg/injection, schedule: Q01DX015 (ip), vehicle: saline 106 % of control | dose: 30.0 mg/kg/injection, schedule: Q01DX Z (ip), vehicle: methylcellulose (MC) 117 % of control | dose: 37.5 mg/kg/injection, schedule: Q01DX001 (ip), vehicle: saline 120 % of control | dose: 37.5 mg/kg/injection, schedule: Q01DX009 (ip), vehicle: saline 120 % of control | dose: 40.0 mg/kg/injection, schedule: Q01DX015 (ip), vehicle: saline 112 % of control | dose: 40.0 mg/kg/injection, schedule: Q04DX003 (ip), vehicle: saline 106 % of control | dose: 45.0 mg/kg/injection, schedule: Q01DX Z (ip), vehicle: methylcellulose (MC) 100 % of control | [3] 108 % of control | [4] 121 % of control | dose: 50.0 mg/kg/injection, schedule: Q04DX003 (ip), vehicle: saline 101 % of control and 113 % of control | dose: 60.0 mg/kg/injection, schedule: Q01DX015 (ip), vehicle: saline 117 % of control | dose: 67.5 mg/kg/injection, schedule: Q01DX Z (ip), vehicle: methylcellulose (MC) 99 % of control | dose: 75.0 mg/kg/injection, schedule: Q04DX003 (ip), vehicle: saline 116 % of control | dose: 90.0 mg/kg/injection, schedule: Q01DX015 (ip), vehicle: saline 104 % of control | [5] 89 % of control | [6] 99 % of control

CCOc1ccc(NC(=O)COc2ccc(Cl)cc2)cc1
inactive: dose: 100.0 mg/kg/injection, schedule: Q01DX009 (ip), vehicle: Klucel (hydroxypropylcellulose) (HPC) 88 % of control | dose: 100.0 mg/kg/injection, schedule: Q04DX003 (ip), vehicle: Klucel (hydroxypropylcellulose) (HPC) 93 % of control | dose: 200.0 mg/kg/injection, schedule: Q01DX009 (ip), vehicle: Klucel (hydroxypropylcellulose) (HPC) 92 % of control | dose: 200.0 mg/kg/injection, schedule: Q04DX003 (ip), vehicle: Klucel (hydroxypropylcellulose) (HPC) 101 % of control | dose: 400.0 mg/kg/injection, schedule: Q01DX009 (ip), vehicle: Klucel (hydroxypropylcellulose) (HPC) 87 % of control | dose: 400.0 mg/kg/injection, schedule: Q04DX003 (ip), vehicle: Klucel (hydroxypropylcellulose) (HPC) 101 % of control

COc1ccc(C(O)(c2ccccc2)C(OC(=O)CCl)c2ccccc2)cc1 (stereo not given)
inactive: [7] 90 % of control

Cc1ncc(CO)c(C2NOCc3ccc(Cl)cc32)c1O (stereo not given)
inactive: dose: 100.0 mg/kg/injection, schedule: Q04DX003 (ip), vehicle: acetone 104 % of control

CC(C)(C)NC(=O)C(Cl)(Cl)Cl
inactive: dose: 31.25 mg/kg/injection, schedule: Q01DX009 (ip), vehicle: Klucel (hydroxypropylcellulose) (HPC) 98 % of control | dose: 62.5 mg/kg/injection, schedule: Q01DX009 (ip), vehicle: Klucel (hydroxypropylcellulose) (HPC) 107 % of control | dose: 125.0 mg/kg/injection, schedule: Q01DX009 (ip), vehicle: Klucel (hydroxypropylcellulose) (HPC) 109 % of control | dose: 250.0 mg/kg/injection, schedule: Q01DX009 (ip), vehicle: Klucel (hydroxypropylcellulose) (HPC) 94 % of control

Cc1ccc(C)c2c1CCCC2=O
inactive: dose: 12.5 mg/kg/injection, schedule: Q01DX009 (ip), vehicle: saline with Tween-80 110 % of control | dose: 25.0 mg/kg/injection, schedule: Q01DX009 (ip), vehicle: saline with Tween-80 107 % of control and 114 % of control | dose: 50.0 mg/kg/injection, schedule: Q01DX009 (ip), vehicle: saline with Tween-80 98 % of control and 106 % of control | dose: 100.0 mg/kg/injection, schedule: Q01DX009 (ip), vehicle: saline with Tween-80 88 % of control | [7] 93 % of control | dose: 400.0 mg/kg/injection, schedule: Q01DX009 (ip), vehicle: saline with Tween-80 96 % of control

C=C1CCC2C(O)CCN2C1=O (stereo not given)
inactive: [1] 103 % of control | [3] 106 % of control | [8] 109 % of control | [9] 104 % of control

COc1ccc2c(c1OC)-c1c3c(cc4c1C(C2)N(C)CC4)OCO3 (stereo not given)
inactive: [8] 98 % of control | [9] 101 % of control | dose: 400.0 mg/kg/injection, schedule: Q01DX001 (ip), vehicle: saline 96 % of control

CCC(=O)NCC1(c2ccccc2)CCN(CC2COc3ccccc3O2)CC1 (stereo not given)
inactive: [2] 108 % of control | [4] 100 % of control | [5] 93 % of control | [6] 102 % of control

O=C(OCC1COc2ccccc2O1)C(F)(F)F (stereo not given)
inactive: dose: 100.0 mg/kg/injection, schedule: Q01DX001 (ip), vehicle: carboxymethylcellulose (CMC) 95 % of control | dose: 200.0 mg/kg/injection, schedule: Q01DX001 (ip), vehicle: carboxymethylcellulose (CMC) 93 % of control | dose: 400.0 mg/kg/injection, schedule: Q01DX001 (ip), vehicle: carboxymethylcellulose (CMC) 98 % of control

N#Cc1nc(N)c(NC2(O)C(=O)Nc3ccccc32)nc1C#N (stereo not given)
inactive: dose: 100.0 mg/kg/injection, schedule: Q04DX002 (ip), vehicle: Klucel (hydroxypropylcellulose) (HPC) 97 % of control | dose: 200.0 mg/kg/injection, schedule: Q04DX002 (ip), vehicle: Klucel (hydroxypropylcellulose) (HPC) 105 % of control
